The molecules below were run on L1210 (assay: In vitro growth inhibitory activity against mouse L1210 leukemia cells).
Format: functional, cell-based

Structure (SMILES)	IC50
CCOC(=O)/C=C/c1cc(O)nc(O)n1	38 µM
CCOC(=O)/C(Cl)=C\c1cc(O)nc(O)n1	3 µM
CCOC(=O)/C(C)=C/c1cc(=O)[nH]c(=O)n1C1O[C@H](CO)[C@@H](O)[C@H]1O (some centres undefined)	> 30 µM
C=Cc1cc(=O)[nH]c(=O)n1C1O[C@H](CO)[C@@H](O)[C@H]1O (some centres undefined)	12 µM
CCOC(=O)/C=C/c1cc(=O)[nH]c(=O)n1C1O[C@H](CO)[C@@H](O)[C@H]1O (some centres undefined)	> 35 µM
C=Cc1nc(O)nc(O)c1I	2 µM

Continued, values first:

IC50	Structure (SMILES)
> 90 µM	C/C=C/c1cc(O)nc(O)n1
4.5 µM	C=Cc1nc(O)nc(O)c1Cl
46 µM	C/C=C\c1cc(O)nc(O)n1
> 25 µM	COC(=O)/C(Br)=C\c1cc(=O)[nH]c(=O)n1C1O[C@H](CO)[C@@H](O)[C@H]1O (some centres undefined)
1 µM	CCOC(=O)/C(Br)=C\c1cc(O)nc(O)n1
3 µM	C=Cc1cc(O)nc(O)n1
11 µM	C=Cc1nc(O)nc(O)c1Br
> 35 µM	C/C=C/c1cc(=O)[nH]c(=O)n1C1O[C@H](CO)[C@@H](O)[C@H]1O (some centres undefined)

Reference: ChEMBL document CHEMBL1127759, “Synthesis and in vitro cytotoxicity of 6-vinyluridine and related compounds” (Bioorg Med Chem Lett, 1994)
